According to PubChem BioAssay AID330 (DTP/NCI, 2004):
“And” between values parts separate entries of the source, which are not always exact repeats. Equal entries are not always repeated. Toxic doses and inconclusive results are not listed. Square brackets hold non-standard residues; d marks the D form. Peptide text beside a SMILES is read from it. * marks the point of attachment. ξ: configuration not given here. Cbz = O=C(OCc1ccccc1)*; ξP = O=C(O)C1CCCN1

Tested on: P388 leukemia ip, CD2F1 mice, survival T/C
Assay: NCI In Vivo Anticancer Drug Screen. Data for tumor model P388 Leukemia (intraperitoneal) in CD2F1 (CDF1) mice
Conditions: endpoint: median survival time, higher = longer survival
Outline: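 Mice carrying the transplanted tumor received test compound or vehicle. Survival was recorded in each group, and the value is the treated-group measurement divided by that of the vehicle-treated control group.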

[1] = dose: 50.0 mg/kg/injection, schedule: Q01DX005 (ip), vehicle: saline with Tween-80
[2] = dose: 100.0 mg/kg/injection, schedule: Q01DX005 (ip), vehicle: saline with Tween-80
[3] = dose: 200.0 mg/kg/injection, schedule: Q01DX005 (ip), vehicle: saline with Tween-80
[4] = dose: 60.0 mg/kg/injection, schedule: Q01DX005 (ip), vehicle: saline with Tween-80
[5] = dose: 120.0 mg/kg/injection, schedule: Q01DX005 (ip), vehicle: saline with Tween-80
[6] = dose: 240.0 mg/kg/injection, schedule: Q01DX005 (ip), vehicle: saline with Tween-80
[7] = dose: 100.0 mg/kg/injection, schedule: Q04DX003 (ip), vehicle: saline
[8] = dose: 200.0 mg/kg/injection, schedule: Q04DX003 (ip), vehicle: saline
[9] = dose: 400.0 mg/kg/injection, schedule: Q04DX003 (ip), vehicle: saline
[10] = dose: 100.0 mg/kg/injection, schedule: Q01DX009 (ip), vehicle: saline
[11] = dose: 50.0 mg/kg/injection, schedule: Q01DX009 (ip), vehicle: saline with Tween-80
[12] = dose: 100.0 mg/kg/injection, schedule: Q01DX009 (ip), vehicle: saline with Tween-80
[13] = dose: 200.0 mg/kg/injection, schedule: Q01DX009 (ip), vehicle: saline with Tween-80
[14] = dose: 50.0 mg/kg/injection, schedule: Q01DX005 (ip), vehicle: Klucel (hydroxypropylcellulose) (HPC)
[15] = dose: 100.0 mg/kg/injection, schedule: Q01DX005 (ip), vehicle: Klucel (hydroxypropylcellulose) (HPC)
[16] = dose: 200.0 mg/kg/injection, schedule: Q01DX005 (ip), vehicle: Klucel (hydroxypropylcellulose) (HPC)
[17] = dose: 25.0 mg/kg/injection, schedule: Q01DX005 (ip), vehicle: Klucel (hydroxypropylcellulose) (HPC)

O=C(O)CNC(=O)C1CCCN1C(=O)OCc1ccccc1 (stereo not given) (Cbz-[ξP]-Gly-OH)
T/C [1]: 100 % of control
T/C [2]: 91 % of control
T/C [3]: 91 % of control

O=C1OC[C@H]2[C@H](c3ccc(O)c(O)c3)c3cc(O)c(O)cc3C[C@H]12
T/C [1]: 95 % of control
T/C [2]: 95 % of control
T/C [3]: 92 % of control

COC(=O)c1cc2ccc1OCC#CC#CCOc1ccc(cc1C(=O)OC)OCC#CC#CCO2
T/C [4]: 89 % of control
T/C [5]: 88 % of control
T/C [6]: 88 % of control

Cn1c2nc(-[n+]3cccc(CO)c3)nc-2c([O-])n(C)c1=O
T/C [7]: 103 % of control
T/C [8]: 99 % of control
T/C [9]: 103 % of control

COc1cc(-c2ccc(N=Nc3c(O)ccc4ccccc34)c(OC)c2)ccc1N=Nc1ccc2c(S(=O)(=O)O)cc(S(=O)(=O)O)c(N)c2c1O
T/C (dose: 66.0 mg/kg/injection, schedule: Q01DX009 (ip), vehicle: saline): 102 % of control
T/C [10]: 118 % of control
T/C (dose: 150.0 mg/kg/injection, schedule: Q01DX009 (ip), vehicle: saline): 114 % of control

CNC(=O)O/N=C/C(C)(C)SC
T/C (dose: 0.11 mg/kg/injection, schedule: Q01DX005 (ip), vehicle: Klucel (hydroxypropylcellulose) (HPC)): 101 % of control
T/C (dose: 0.23 mg/kg/injection, schedule: Q01DX005 (ip), vehicle: Klucel (hydroxypropylcellulose) (HPC)): 101 % of control
T/C (dose: 0.46 mg/kg/injection, schedule: Q01DX005 (ip), vehicle: Klucel (hydroxypropylcellulose) (HPC)): 101 % of control

CCCCCCCCOP(=O)(N1CC1)N1CC1
T/C (dose: 22.0 mg/kg/injection, schedule: Q04DX003 (ip), vehicle: saline): 154 % of control
T/C (dose: 33.0 mg/kg/injection, schedule: Q04DX003 (ip), vehicle: saline): 222 % of control
T/C (dose: 50.0 mg/kg/injection, schedule: Q04DX003 (ip), vehicle: saline): 159 % of control
T/C (dose: 75.0 mg/kg/injection, schedule: Q04DX003 (ip), vehicle: saline): 118 % of control

NC(=S)N/N=C/c1cccnc1
T/C (dose: 25.0 mg/kg/injection, schedule: Q01DX009 (ip), vehicle: saline with Tween-80): 92 % of control
T/C [11]: 92 % of control
T/C [12]: 99 % of control
T/C [13]: 92 % of control

C=C(C)C(=O)OC1CC2(C)OC2CCC2(C)OC2C2OC(=O)C(=C)C12 (stereo not given)
T/C (dose: 10.0 mg/kg/injection, schedule: Q01DX005 (ip), vehicle: Klucel (hydroxypropylcellulose) (HPC)): 108 % of control
T/C (dose: 20.0 mg/kg/injection, schedule: Q01DX005 (ip), vehicle: Klucel (hydroxypropylcellulose) (HPC)): 106 % of control
T/C (dose: 40.0 mg/kg/injection, schedule: Q01DX005 (ip), vehicle: Klucel (hydroxypropylcellulose) (HPC)): 100 % of control

CC(=NCCCCCCN=C(C)c1cc(O)ccc1O)c1cc(O)ccc1O
T/C [14]: 92 % of control
T/C [15]: 94 % of control
T/C [16]: 87 % of control

CC(=O)C1=C(O)C2(C)c3c(O)c(C)c(O)c(C(C)=O)c3OC2CC1=O (stereo not given)
T/C (dose: 6.25 mg/kg/injection, schedule: Q01DX009 (ip), vehicle: gum acacia): 100 % of control and 106 % of control
T/C (dose: 12.5 mg/kg/injection, schedule: Q01DX009 (ip), vehicle: gum acacia): 103 % of control and 108 % of control
T/C (dose: 25.0 mg/kg/injection, schedule: Q01DX009 (ip), vehicle: gum acacia): 108 % of control and 110 % of control
T/C (dose: 50.0 mg/kg/injection, schedule: Q01DX009 (ip), vehicle: gum acacia): 108 % of control and 110 % of control

O=c1[nH]cnc2ccc3cn[nH]c3c12
T/C [1]: 100 % of control
T/C [2]: 105 % of control
T/C [3]: 106 % of control

CCCCCCCCCCCCCCCN1CCS(=O)(=O)CC1
T/C (dose: 50.0 mg/kg/injection, schedule: Q01DX009 (ip), vehicle: Klucel (hydroxypropylcellulose) (HPC)): 98 % of control
T/C (dose: 100.0 mg/kg/injection, schedule: Q01DX009 (ip), vehicle: Klucel (hydroxypropylcellulose) (HPC)): 94 % of control
T/C (dose: 200.0 mg/kg/injection, schedule: Q01DX009 (ip), vehicle: Klucel (hydroxypropylcellulose) (HPC)): 94 % of control

CCN(CC)c1nc(Cl)nc(Nc2ccc3cc(-c4ccccc4)c(=O)oc3c2)n1
T/C [14]: 98 % of control
T/C [15]: 95 % of control
T/C [16]: 104 % of control

CCOC(=O)NC(=Cc1ccccn1)c1ccc(Cl)cc1 (mixture of isomers)
T/C [4]: 103 % of control
T/C [5]: 97 % of control
T/C [6]: 93 % of control

c1ccc2c3c([nH]c2c1)CCN1CCN(CCc2ccncc2)CC31 (stereo not given)
T/C (dose: 100.0 mg/kg/injection, schedule: Q04DX002 (ip), vehicle: Klucel (hydroxypropylcellulose) (HPC)): 100 % of control
T/C (dose: 200.0 mg/kg/injection, schedule: Q04DX002 (ip), vehicle: Klucel (hydroxypropylcellulose) (HPC)): 101 % of control
T/C (dose: 400.0 mg/kg/injection, schedule: Q04DX002 (ip), vehicle: Klucel (hydroxypropylcellulose) (HPC)): 96 % of control

Cn1cc(C2NC(=O)c3ccccc3N2)c2ccccc21 (stereo not given)
T/C [17]: 102 % of control
T/C [14]: 106 % of control
T/C (dose: 88.0 mg/kg/injection, schedule: Q01DX005 (ip), vehicle: Klucel (hydroxypropylcellulose) (HPC)): 113 % of control
T/C [15]: 115 % of control

COC(=O)c1ccc(Nc2cn[nH]n2)cc1
T/C [14]: 101 % of control
T/C [15]: 100 % of control
T/C [16]: 98 % of control

CCCCCCC[CH2][Sn]([Cl])([Cl])[Cl]
T/C [7]: 98 % of control
T/C [8]: 102 % of control
T/C [9]: 104 % of control

Cn1c(Cl)c(/C=N\Nc2ccc([N+](=O)[O-])cc2)c2ccccc21
T/C (dose: 50.0 mg/kg/injection, schedule: Q01DX001 (ip), vehicle: Klucel (hydroxypropylcellulose) (HPC)): 89 % of control
T/C (dose: 100.0 mg/kg/injection, schedule: Q01DX001 (ip), vehicle: Klucel (hydroxypropylcellulose) (HPC)): 89 % of control
T/C (dose: 200.0 mg/kg/injection, schedule: Q01DX001 (ip), vehicle: Klucel (hydroxypropylcellulose) (HPC)): 100 % of control

O=C(CN1CCNCC1)N1CCOCC1
T/C (dose: 50.0 mg/kg/injection, schedule: Q01DX005 (ip), vehicle: saline): 100 % of control
T/C (dose: 100.0 mg/kg/injection, schedule: Q01DX005 (ip), vehicle: saline): 102 % of control
T/C (dose: 200.0 mg/kg/injection, schedule: Q01DX005 (ip), vehicle: saline): 97 % of control

O=Nc1c2n[nH]c1CCCCCCCCC2
T/C [14]: 101 % of control
T/C [15]: 101 % of control
T/C [16]: 98 % of control

N=C(N)c1ccc(OCCCCOc2ccc(N)cc2Cl)cc1
T/C (dose: 30.0 mg/kg/injection, schedule: Q01DX005 (ip), vehicle: saline with Tween-80): 102 % of control
T/C [4]: 106 % of control and 97 % of control
T/C [5]: 105 % of control

CC1(c2ccccc2)NN1
T/C (dose: 100.0 mg/kg/injection, schedule: Q04DX002 (ip), vehicle: saline with Tween-80): 94 % of control
T/C (dose: 200.0 mg/kg/injection, schedule: Q04DX002 (ip), vehicle: saline with Tween-80): 95 % of control
T/C (dose: 400.0 mg/kg/injection, schedule: Q04DX002 (ip), vehicle: saline with Tween-80): 94 % of control

CC(=O)Nc1cc2cccnc2sc1=O
T/C [17]: 98 % of control
T/C [14]: 91 % of control
T/C [15]: 89 % of control and 94 % of control
T/C [16]: 96 % of control

C[n+]1ccc(/C=C/c2ccccc2O)cc1
T/C (dose: 12.5 mg/kg/injection, schedule: Q01DX009 (ip), vehicle: saline): 89 % of control
T/C (dose: 25.0 mg/kg/injection, schedule: Q01DX009 (ip), vehicle: saline): 94 % of control
T/C (dose: 50.0 mg/kg/injection, schedule: Q01DX009 (ip), vehicle: saline): 106 % of control
T/C [10]: 117 % of control

CN(C)[C@@H]1C(=O)C(C(=O)NCNC2CC(C)(C)N(O)C(C)(C)C2)=C(O)C2(O)C(=O)C3=C(O)c4c(O)cccc4[C@@](C)(O)C3CC12 (stereo not given in full)
T/C (dose: 100.0 mg/kg/injection, schedule: Q01DX001 (ip), vehicle: saline): 105 % of control
T/C (dose: 200.0 mg/kg/injection, schedule: Q01DX001 (ip), vehicle: saline): 89 % of control
T/C (dose: 400.0 mg/kg/injection, schedule: Q01DX001 (ip), vehicle: saline): 91 % of control

CCOC(=O)C(=CNc1cc(C)ccn1)C(=O)OCC
T/C [11]: 104 % of control
T/C [12]: 95 % of control
T/C [7]: 95 % of control
T/C [13]: 100 % of control
T/C [8]: 100 % of control

Nc1ccc(O)c(=O)cc1
T/C [14]: 96 % of control
T/C [15]: 95 % of control
T/C [16]: 92 % of control
